Reference: patent US6172205A, “Synthetic process toward total synthesis of eleutherobin and its analogues and uses thereof” (The Trustees of Columbia in the City of New York, priority 1998, dated 2001)
Several values for one entry are separate records, joined by “and”; a condition that tells them apart may be missing. Equal entries are not always repeated. Entries after “also recorded” stand apart in the source; their conditions may differ. Where two headings read alike, the source gives them in different places.

Legend:
[1] = tested on: cellular microtubules, NIH 3T3 cells; test: Microtubule bundle formation by immunofluorescence; type: cell-based; conditions: 2 μM, 5.5 h; for microtubule bundle formation (in words): 37 °C
Experimental: FIG. 9 immunofluorescence images NIH3T3 cells labeled with β-tubulin antibody following exposure to different drugs. A)DMSO; B)2 μM Taxol; C)2 μM eleutherobin; D)2 μM neo-eleutherobin; E)2 μM SKBII.294; F)2 μM SKBIII.13.
Illustrates the effects of eleutherobin and its derivatives on the morphology of cellular microtubules following exposure of cells to 2 μM of each compound for 5.5 h at 37° C. […] The number of micotic asters correlated with the extent of microtubule bundling in interphase cells.
(§1) NIH 3T3 cells were grown to subconfluency on glass converslips in 35 mm plastic petri dishes. Cells were exposed to 2 μM of Taxol and each of the experimental compounds for 5.5 h at 37° C., rinsed twice in PBS and extracted with 0.5% Triton-X-100 in microtubule stabilizing buffer (PEM) (100 mM PIPES, 2 mM EGTA and 2 mM MgCl2, pH 6.8) for 4 min. Following a wash in PEM, the cells were fixed for 40 min at room temperature in 3% formaldehyde in PEM followed by incubation in 0.1 M glycine in PBS for 10 min and washing (four times) in PEM containing 5 μM EGTA. Following blocking in 20% normal goat serum (NGS) for 30 min at room temperature, cells were incubated for 1 h at 37° C. with a 1:100 dilution of β-tubulin mAb diluted in 10% NGS, washed twice in 1% BSA, once in PBS and three times in 1% BSA. Cells were then incubated in a 1:200 dilution of the secondary fluorophore antibody, IndocarbocyanineCY3 (Jackson Immunoresearch Laboratories Inc., Pa.) in 20% NGS for 20 min at room temperature. Finally cells were washed three times in 1% BSA and the dried slides mounted in 30% glycerol in PBS containing […]-phenylene diamine (1 mg/ml). Fixed slides were examined using a Zeiss Axioskop microscope.

microtubule protein = test: Stability of microtubules against Ca++-induced depolymerization; type: biochemical, calf; conditions: 10 mM CaCl2
Experimental: (§2) Eleutherobin and its derivatives were synthesized as described (18,19). Taxol was obtained from the Drug Development Branch, National Cancer Institute (Bethesda, Md.). All compounds were dissolved in dimethyl sulfoxide (Sigma Chemical Co., St. Louis, Mo.) at stock concentrations of 5 mM and stored at -20° C. All control samples contained an equal volume of DMSO. GTP was obtained from Sigma Chemical Co. And dissolved in sterile distilled water at a concentration of 10 mM and stored at -20° C. Microtubule protein was purified from calf brains by two cycles of temperature-dependent assembly and disassembly (20) and stored in liquid nitrogen prior to use. The anti-mouse β-tubulin monoclonal antibody T-4026 was obtained from Sigma Chemical Co.
(§3) The ability of each compound to polymerize tubulin was evaluated by recording the change in turbidity of microtubule protein at 350 nm for 80 min in a spectrophotometer (UVIKON, Research Instruments Int., SD, Calif.). One mg of purified microtubule protein was diluted in assembly buffer containing 0.1 M MES, 1 mM EGTA, 0.5 mM MgCl2 and 3 M glycerol, pH 6.6. All compounds were evaluated at a concentration of 10 μM at 37° C. GTP was used at a final concentration of 1 mM. Microtubule stability was assessed by the addition of 10 mM Ca^++. changes from t=0-10 min were used to calculate initial slopes from the linear portion of each curve. These values were used to calculate the activity of each compound (relative to the activity of Taxol which was assigned a value of 100%).
The ability of each compound to polymerize and/or stabilize microtubules was assessed (FIG. 7). To investigate whether eleutherobin and its derivatives shared the microtubule stabilizing properties of Taxol, 10 mM CaCl2 was added to each sample after maximum microtubule polymerization occurred, and the effects on turbidity recorded spectrophotometrically. A positive control was included in which 1 mM GTP was used to confirm the ability of GTP-stabilized microtubules to undergo Ca^++ induced depolymerization.
The ability of this compound to stabilize microtubules formed in the presence of GTP was examined. After a period of 15 min, 10 mM Ca^++ was added and the change in turbidity recorded.

[2] = tested on: Human non-small cell lung carcinoma cells, A549; test: Cytotoxicity by counting cells after 72 h, Taxol-sensitive cells; type: cell-based; conditions: for IC50: Homo sapiens
Experimental: Taxol-resistant and sensitive cell lines were seeded into 12-well plates at a density of 5×10^4 cells per well and allowed a period of 12 h for attachment prior to treatment. […] Cells were then trypsinized and counted (Coulter counter model ZF0031, Coulter Corp., Miami, Fla.).

[3] = tested on: SKVBL (MDR variant of SKOV3); test: Cytotoxicity by counting cells after 72 h, MDR variant cells; type: cell-based, human; conditions: for IC50: Homo sapiens, SK-OV-3, Ovarian Carcinoma SKOV3, Resistant (SKVBL), 72 h, mean of at least three independent experiments
Experimental: (§4) Human non-small cell lung carcinoma cells, A549, were maintained in RPMI 1640 containing 10% fetal bovine serum and 1% penicillin-streptomycin (Gibco Laboratories, Grand Island N.Y.) at 37° C. in 7% CO2. The Taxol-resistant cell line A549-T12 was selected for resistance to Taxol and maintained in a final concentration of 12 nM drug (21). Human ovarian carcinoma cells SKOV3 and the MDR variant SKVBL (obtained from Dr. V. Ling) were maintained in α-mem plus ribonucleotides, deoxynucleotides, 15% fetal bovine serum and 1% penicillin-streptomycin (Gibco Laboratories) at 37° C. in 5% CO2. SKVBL cells were maintained in […] vinblastine (Sigma Chemical Co.).
(§5) Taxol-resistant and sensitive cell lines were seeded into 12-well plates at a density of 5×10^4 cells per well and allowed a period of 12 h for attachment prior to treatment. Cells were exposed to 10-fold serial dilutions of each compound (10^-10 to 10^-6 M) for 72 h. Cells were then trypsinized and counted (Coulter counter model ZF0031, Coulter Corp., Miami, Fla.). The IC50 was determined by plotting cell number against log of the drug concentration and this was used to determine the concentration of compound resulting in 50% growth inhibition compared to untreated cells. Each cell line was assayed in a minimum of 3 independent experiments with each compound and the results expressed as the mean IC50.
(§6) The cytotoxic efficacy of eleutherobin and its derivatives (FIG. 6) was evaluated in two drug sensitive human cancer cell lines and their Taxol-resistant counterparts. The results are summarized in Table I in order of decreasing potency. […] The Taxol-resistant cell line SKVBL overexpresses high levels of P-glycoprotein (22). […] The only difference between the two agents is the enantiomeric relationship in the carbohydrate (2'-acetylarabinose) sector (FIG. 6). […] This cell line expressed high levels of MDR1 resulting in Taxol-resistance equal or greater than 1666 -fold compared to the Taxol-sensitive SKOV3 cell line.
(§7) ^a Cytotoxicity determined by counting cells after 72 h drug exposure.

[4] = tested on: A549-T12 (Taxol-resistant A549); test: Cytotoxicity by counting cells after 72 h, Taxol-resistant cells; type: cell-based, human; conditions: for fold resistance relative to the parental cell line: A549-T12 vs A549, 4320 min; for IC50: Homo sapiens, Lung Carcinoma A549, Resistant (A549-T12), 72 h, mean of at least three independent experiments
Experimental: as §4, §5, §6, §7

[5] = tested on: Human ovarian carcinoma cells SKOV3; test: Cytotoxicity by counting cells after 72 h, Taxol-sensitive cells; type: cell-based
Experimental: as §4, §5, §7

P-glycoprotein = P-glycoprotein substrate behaviour inferred from resistance of SKVBL cells; type: cell-based, human
Experimental: as §4, §5, §6

[6] = tested on: tubulin / microtubule protein; test: Tubulin polymerization by turbidity at 350 nm in the absence of GTP; type: biochemical, calf; conditions: 10 μM; for tubulin polymerization (in words): 37 °C, absence of GTP
Experimental: as §2
as §3, with “GTP was used at a final concentration of 1 mM.” left out
The polymerization activity of these compounds was also assessed by determining the slope of the linear portion of each curve at A350 nm (t=0-10 min), and expressing this relative to Taxol (which was assigned a value of 100% (FIG. 8). The order of activity of eleutherobin and derivatives using this method, corroborates the results obtained from cytotoxicity studies.

[7] = Overall biological activity, all parameters tested
Experimental: as §5, §3, §1

[8] = sensitive cell lines (A549, SKOV3)

Structure (SMILES) | microtubule bundle formation (in words) [1] | stabilization against Ca++-induced depolymerization (in words) (microtubule protein) | IC50 ([2]; A549, 72 h) | IC50 [3] | fold resistance relative to the parental cell line [4] | IC50 [4] | IC50 ([5]; SK-OV-3, 72 h) | P-glycoprotein substrate (in words) (P-glycoprotein) | biological activity (in words) [7] | further results
CC(=O)O[C@H]1C(=O)[C@@]2(C)[C@H]([C@H](OC(=O)c3ccccc3)[C@]3(O)C[C@H](OC(=O)[C@H](O)[C@@H](NC(=O)c4ccccc4)c4ccccc4)C(C)=C1C3(C)C)[C@]1(OC(C)=O)CO[C@@H]1C[C@@H]2O [Taxol, reference compound] | identical to that seen in Taxol-treated cells | stabilized microtubules against Ca^++ -induced depolymerization | 2 nM | > 5000 nM | 7 fold and 7.1 fold | 14.2 nM | 3 nM | excellent substrates for P-glycoprotein |  | fold resistance relative to the parental cell line ([3]; SKVBL vs SKOV3): ≥ 1666 fold
CO[C@]12C=C[C@](C)(O1)[C@@H](OC(=O)/C=C/c1cn(C)cn1)C[C@H]1C(C)=CC[C@H](C(C)C)[C@H]1C=C2CO[C@H]1OC[C@H](O)[C@H](O)[C@H]1OC(C)=O [Neo-Eleutherobin] | the extent of bundling was reduced | the microtubules formed also resisted Ca^++ -induced depolymerization | 125 nM | > 1000 nM | 1.2 fold | 146 nM | 134 nM | excellent substrates for P-glycoprotein | less active than eleutherobin in all of the parameters examined | multiple asters in mitotic cells ([1]; data not shown): also seen in eleutherobin and neo-eleutherobin-treated cells; fold less active / less cytotoxic than eleutherobin [2, 8]: 20 fold and 14-20 fold; cross-resistance in SKVBL (in words) ([3]; MDR1 expressing cells, high P-glycoprotein): exhibited cross-resistance in an MDR1 expressing cell line; also recorded: demonstrated cross-resistance; microtubule polymerization activity relative to eleutherobin ([6]; relative to eleutherobin): 69%; cross-resistance in A549-T12 (in words) ([4]; Taxol-resistant, not expressing P-glycoprotein): neither eleutherobin nor neo-eleutherobin displayed cross-resistance; also recorded: neither of these compounds showed cross-resistance
CO[C@]12C=C[C@](C)(O1)[C@@H](O)C[C@H]1C(C)=CC[C@H](C(C)C)[C@H]1C=C2CO[C@@H]1OC[C@@H](O)[C@@H](O)[C@@H]1O [SKBIII.13] | a fine microtubule network without bundle formation | unable to stabilize GTP-polymerized microtubules against Ca^++ induced depolymerization |  |  |  |  |  |  | basically inactive by all parameters tested | IC50 ([2]; Lung Carcinoma A549, Sensitive, 72 h, mean of at least three independent experiments, read-out: IC50): 4150 nM; cytotoxicity (in words) [2, 8]: its cytotoxicity is greatly reduced; tubulin polymerization (in words) [6]: inactive in tubulin polymerization assays; tubulin polymerization (in words) ([6]; listed as SKBII.13): forfeited the ability to polymerize microtubules; biological activity (in words) ([7]; listed as SKBII.13): biologically inactive; IC50 ([5]; SK-OV-3, Ovarian Carcinoma SKOV3, Sensitive, 72 h, mean of at least three independent experiments, read-out: IC50): > 5000 nM
